# Data published in US4804502A, “Vitamin D compounds” (priority 1988, dated 1989).
# Where two headings read alike, the source gives them in different places.
# Assays:
# [1] = system: bone calcium mobilization; experiment: Bone Calcium Mobilization in Rat (plasma Ca increase); assay type: in vivo; conditions: 12.5 ng/rat, intrajugular, 18 h
# Protocol: Controls received carrier alone. Bone Ca resorption (BCR) was estimated by measuring the blood Ca increase in the treated rats. Blood was collected in heparinized tubes and centrifuged. The resulting plasma was measured for calcium concentration by atomic absorption spectroscopy. Since rats were fed a diet essentially devoid of Ca, plasma Ca increases reflected mobilization of Ca from bone, not intestinal Ca absorption.
# [2] = target: T1, 1,25-(OH)2 D3 receptors (chick intestine) (Gallus gallus, UniProt O42392); experiment: Competitive Binding to 1,25-(OH)2 D3 Intestine Receptors, chick; conditions: a/b×100 from amounts displacing 50% of 1,25-(OH)2[3H]D3
# T1 construct: receptor prepared from intestine of chick, rat and calf; from tissue; host or cells: chick proximal small-intestine mucosa, cytosol, 35% ammonium sulphate precipitate
# T1 sequence (O42392 1-451): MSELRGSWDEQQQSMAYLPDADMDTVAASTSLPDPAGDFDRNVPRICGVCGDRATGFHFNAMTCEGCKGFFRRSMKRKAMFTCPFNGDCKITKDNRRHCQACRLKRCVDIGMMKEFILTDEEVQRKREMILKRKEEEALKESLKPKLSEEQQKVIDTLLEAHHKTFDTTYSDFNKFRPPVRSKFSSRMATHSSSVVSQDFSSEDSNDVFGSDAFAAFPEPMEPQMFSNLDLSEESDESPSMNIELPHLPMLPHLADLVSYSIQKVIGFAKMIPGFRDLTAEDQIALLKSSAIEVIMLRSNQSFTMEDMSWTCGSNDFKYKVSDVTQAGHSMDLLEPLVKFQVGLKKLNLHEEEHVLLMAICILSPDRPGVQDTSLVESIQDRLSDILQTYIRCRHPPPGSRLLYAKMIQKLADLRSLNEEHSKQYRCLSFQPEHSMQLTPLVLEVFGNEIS
# Protocol: (§1) The ability of vitamin D3 metabolites to compete for 1,25-(OH)[^3 H]D3 receptor binding sites was evaluated with receptor prepared from intestine of chick, rat and calf. […] Mucosa was collected and washed three times with 10 volumes of cold KTED buffer. The washed mucosa was homogenized in KTED buffer (20% w/v) using a Polytron Pt20 tissue disruptor. Cytosol was prepared by centrifugation of the homogenized mucosa at 300,000×g for 1 hour. […] The ammonium sulphate treated cytosol was centrifuged at 20,000×g for 10 minutes. The supernatant was discarded and the pellet lyophilized and stored at […] Prior to binding assay the pellet was resuspended in cold binding assay buffer containing 150 mM KCl, 50 mM NaPO4, 1.5 mM EDTA and 5 mM dithiothreitol.
# [3] = target: T2, 1,25-(OH)2 D3 receptors (calf intestine) (Bos taurus, UniProt Q28037); experiment: Competitive Binding to 1,25-(OH)2 D3 Intestine Receptors, calf; conditions: a/b×100 from amounts displacing 50% of 1,25-(OH)2[3H]D3
# T2 construct: receptor prepared from intestine of chick, rat and calf; from tissue; host or cells: calf proximal small-intestine mucosa, cytosol, 35% ammonium sulphate precipitate
# T2 sequence (Q28037 1-426): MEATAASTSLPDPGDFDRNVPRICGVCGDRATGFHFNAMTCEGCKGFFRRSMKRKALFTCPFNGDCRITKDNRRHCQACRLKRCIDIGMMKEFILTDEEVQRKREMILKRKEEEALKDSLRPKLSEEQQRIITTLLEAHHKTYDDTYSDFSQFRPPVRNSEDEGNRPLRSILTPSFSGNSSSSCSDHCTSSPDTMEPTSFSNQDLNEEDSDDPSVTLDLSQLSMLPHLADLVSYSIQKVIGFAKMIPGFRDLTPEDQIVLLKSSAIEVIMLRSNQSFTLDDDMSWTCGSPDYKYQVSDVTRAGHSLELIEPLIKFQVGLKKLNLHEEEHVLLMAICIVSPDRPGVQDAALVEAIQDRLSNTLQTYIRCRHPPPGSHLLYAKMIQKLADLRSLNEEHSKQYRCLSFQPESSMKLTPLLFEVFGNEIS
# Protocol: as §1
# [4] = system: HL-60 promyelocytic leukemia cells; experiment: Inhibition of proliferation of HL-60 cells; assay type: cell-based; conditions: Homo sapiens, HL-60, 192 h; for IC50: read-out: ID50 (concentration which reduced the cell number by 50%)
# Protocol: (§2) Inhibition of Cell Proliferation and Induction of Cell Differentiation
# (§3) Cultures of HL-60 promyelocytic leukemia cells were established in the absence (control) and presence of various concentrations of test compounds. After an 8-day incubation period, the cultures were evaluated for proliferation of tumor cells, cell viability, and cellular differentiation. Proliferation was assessed by directly enumerating the increased number of tumor cells resulting from cell division during incubation. Viability was assessed by dye exclusion technique to learn whether any of the compounds were lethal to the cultured HL-60 cells. Cellular differentiation was evaluated by determining the number of cells which had acquired the enzymes necessary to support a respiratory burst, a characteristic of mature macrophages and granulocytes.
# (§4) Tissue culture medium used in these experiments was RPMI-1640 supplemented to 10% v/v with heat-inactivated fetal bovine serum and to an additional 1.6 mM with L-glutamine.
# (§5) Test compounds were dissolved in sufficient ethanol to yield stock solutions of 1×10^-2 or 1×10^-3 molar. Reduced lighting was used when working with compounds and stock solutions were stored in the dark at -20° C. in an argon atmosphere. Compounds were diluted in tissue culture medium and added to flasks containing HL-60 cells to achieve the final concentration described in each test.
# (§6) The HL-60 tumor cell line was originally derived from a patient with promyelocytic leukemia and was obtained from the American Type Culture Collection. The cells were maintained in liquid culture by serial passage twice weekly in tissue culture medium. […] In any test, three replicate flasks were incubated without compound (control) or in the presence of varying concentrations of test compound. Ethanol, used as the vehicle, was kept constant in all dilutions in each test and had no effect on cell proliferation, viability or cell differentiation at the concentrations used (≤0.1%). After 8 days of incubation at 37° in a humidified atmosphere of 5% CO2 in air, cultures were evaluated for tumor cell proliferation, viability and differentiation.
# Quantitation of proliferation was done by enumerating the number of HL-60 cells in each individual flask (3 flasks per experimental point) using an Elzone electronic particle counter. Results are shown as the percent reduction of cell number calculated for each concentration tested according to the formula: [formula] The results are also expressed as the concentration which reduced the cell number by 50% (ID50).
# [5] = system: HL-60 promyelocytic leukemia cells; experiment: Induction of differentiation of HL-60 cells (NBT reduction); assay type: cell-based, human; conditions: for EC50: Homo sapiens, HL-60, 192 h, read-out: ED50 (concentration which induced differentiation of 50% of the cells)
# Protocol: as §2, §3, §4, §5, §6
# Quantitation of differentiated cells was done by the biochemical method of nitroblue tetrazolum (NBT) reduction. One million HL-60 cells were pooled from replicate cultures, centrifuged at 220×g for 10 minutes, and resuspended in 1 ml of Ca^++ -Mg^++ -deficient phosphate buffered saline prepared by supplementing Ca^++ -Mg^++ -free phosphate buffered saline (PBS) to 20% v/v with heat-inactivated fetal bovine serum). Nitroblue tetrazolium was dissolved at 0.5 mg per ml in Ca^++ -Mg^++ -free PBS with gentle heating and frequent mixing. A stock solution of 1 mg tetradecanoyl phorbol acetate (TPA) per ml in ethanol, stored at -20°, was diluted 100-fold with Ca^++ -Mg^++ -free PBS to prepare a working solution. The test was done by adding 1 ml of NBT solution and 0.02 ml of the working TPA solution to the HL-60 cells. After mixing, the tubes were incubated in a 37° water bath for 25 minutes then transferred to ice. Undifferentiated and differentiated cells present in any sample were determined microscopically by surveying a minimum of 300 cells per sample. Cells without pigmented granules (clear cells) were judged to be undifferentiated while those containing greater than 3 blue-black formazan granules were scored as differentiated. Generally, differentiated cells were intensely pigmented clearly indicating the enzymatic conversion of NBT to formazan. Results are expressed as the percentage of differentiated cells present in any sample as calculated according to the formula: [formula] The results are also expressed as the concentration of compound which induced differentiation of 50% of the cells (ED50).
# [6] = system: intestinal calcium absorption (duodenum); experiment: Stimulation of Intestinal Calcium Absorption in Rat (intestinal 45Ca transport, everted gut sac); conditions: 12.5 ng/rat, intrajugular, 18 h
# vitamin D deficient rats = conditions: 3 weeks
# [7] = 8 days, from dose response curves
# [8] = read-out: % Reduction in cell number
smiles,measurement,setting,value
"C=C1CC[C@H](O)C/C1=C/C=C1\CCC[C@]2(C)[C@@H]([C@H](C)CC#CC(O)(C(F)(F)F)C(F)(F)F)CC[C@@H]12 [Compound D, 25-hydroxy-23-yne-26,26,26,27,27,27-hexafluorocholecalciferol]","% of 1,25-(OH)2 D3 Effect in Rat, bone calcium mobilization",[1],11%
same,"Competitive Binding to 1,25-(OH)2 D3 Receptors - % of 1,25-(OH)2 D3 Effect, chick intestine",[2],0%
same,"Competitive Binding to 1,25-(OH)2 D3 Receptors - % of 1,25-(OH)2 D3 Effect, calf intestine",[3],0%
same,inhibition at 0.01 µM,"[4]; 1 × 10^-8 M, 8 days, read-out: % Reduction in cell number",0%
same,inhibition at 0.1 µM,"[4]; 10 × 10^-8 M, 8 days, read-out: % Reduction in cell number",14%
same,inhibition at 1 µM,"[4]; 100 × 10^-8 M, 8 days, read-out: % Reduction in cell number",77%
same,IC50,[4]; [7],250 nM
same,% Differentiated cells,"[5]; 1 × 10^-8 M, 8 days",6%
same,% Differentiated cells,"[5]; 10 × 10^-8 M, 8 days",27%
same,% Differentiated cells,"[5]; 100 × 10^-8 M, 8 days",99%
same,EC50,[5]; [7],200 nM
same,"% of 1,25-(OH)2 D3 Effect in Rat, intestinal calcium absorption",[6],0%
"C=C1CC[C@H](O)C/C1=C/C=C1\CCC[C@]2(C)[C@@H]([C@H](C)CC#CC(C)(C)O)CC[C@@H]12 [Compound C, 25-hydroxy-23-yne-cholecalciferol]","% of 1,25-(OH)2 D3 Effect in Rat, bone calcium mobilization",[1],0%
same,"Competitive Binding to 1,25-(OH)2 D3 Receptors - % of 1,25-(OH)2 D3 Effect, chick intestine",[2],0%
same,"Competitive Binding to 1,25-(OH)2 D3 Receptors - % of 1,25-(OH)2 D3 Effect, calf intestine",[3],0%
same,inhibition at 0.1 µM,[4]; [8],0%
same,inhibition at 1 µM,[4]; [8],31%
same,inhibition at 3 µM,[4]; [8],79%
same,IC50,[4],1500 nM
same,% Differentiated cells,"[5]; 10 × 10^-8 M, 8 days",5%
same,% Differentiated cells,"[5]; 100 × 10^-8 M, 8 days",27%
same,% Differentiated cells,"[5]; 300 × 10^-8 M, 8 days",95%
same,EC50,[5],1500 nM
same,"% of 1,25-(OH)2 D3 Effect in Rat, intestinal calcium absorption",[6],71%
"C=C1/C(=C\C=C2/CCC[C@]3(C)[C@@H]([C@H](C)CCCC(C)(C)O)CC[C@@H]23)C[C@@H](O)C[C@@H]1O [1,25-(OH)2 D3, reference compound]","% of 1,25-(OH)2 D3 Effect in Rat, bone calcium mobilization",[1],100%
same,Bone Mass,vitamin D deficient rats; daily dose 15 ng,156 ± 16 mm^3 /cm^3
same,Serum Ca^2+,vitamin D deficient rats; daily dose 15 ng,11.76 ± 0.16 mg/dL
same,Serum PO4^2-,vitamin D deficient rats; daily dose 15 ng,7.61 ± 0.31 mg/dL
same,Bone Mass,vitamin D deficient rats; daily dose 60 ng,296 ± 56 mm^3 /cm^3
same,Serum Ca^2+,vitamin D deficient rats; daily dose 60 ng,11.92 ± 0.40 mg/dL
same,Serum PO4^2-,vitamin D deficient rats; daily dose 60 ng,6.58 ± 0.30 mg/dL
same,"% of 1,25-(OH)2 D3 Effect in Rat, intestinal calcium absorption",[6],100%
